Tests used:
Test in all cases: relative viability (nuclei count vs DMSO), 5 days (fraction); higher = more cells survive
[1] = system: EPLC-272H
Method in brief: (§1)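 Cells from lung cancer lines were seeded into 1536-well plates and, one day later, dosed by pin tool. Treatments were either a single drug or a fixed dose of an anchor drug with five library-drug doses (not always all listed) in √10 steps. After 5 days, nuclei were stained in a one-step fixation (final 0.05% Triton X-100, 1% formaldehyde, 1 ug/ml Hoechst) and counted on 4× images, and relative viability is the treated-to-vehicle nuclei ratio, as the median of duplicate plates.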

[2] = system: HCC-78
Method in brief: as §1

[3] = system: CAL-12T
Method in brief: as §1

[4] = system: HCC-15
Method in brief: as §1

[5] = system: NCI-H358
Method in brief: as §1

[6] = system: ABC-1
Method in brief: as §1

[7] = system: NCI-H2126
Method in brief: as §1

[8] = system: LXF-289
Method in brief: as §1

[9] = system: NCI-H441
Method in brief: as §1

[10] = system: NCI-H1975
Method in brief: as §1

[11] = system: COR-L 105
Method in brief: as §1

[12] = system: NCI-H1915
Method in brief: as §1

[13] = system: NCI-H2085
Method in brief: as §1

[14] = system: UMC-11
Method in brief: as §1

[15] = system: ChaGo-K-1
Method in brief: as §1

[16] = system: NCI-H3122
Method in brief: as §1

[17] = system: NCI-H322M
Method in brief: as §1

[18] = system: NCI-H1993
Method in brief: as §1

[19] = system: HOP-62
Method in brief: as §1

[20] = system: NCI-H2023
Method in brief: as §1

[21] = system: NCI-H1755
Method in brief: as §1

[22] = system: EMC-BAC-2
Method in brief: as §1

[23] = system: NCI-H1666
Method in brief: as §1

Question: How did the relative viability ([1]; first compound 0.04 µM) turn out when O=C(O)c1ccc(-c2c[nH]c3ncc(-c4ccccc4)cc23)cc1C1CCCC1 + Cc1nc(Nc2ncc(C(=O)Nc3c(C)cccc3Cl)s2)cc(N2CCN(CCO)CC2)n1 [Dasatinib] (partner 0.075 µM) was run?
Answer: 0.331

Question: And the relative viability ([1]; first compound 0.1265 µM)?
Answer: 0.416

Question: And the relative viability ([1]; first compound 0.4 µM)?
Answer: 0.328

Question: And the relative viability ([1]; first compound 1.265 µM)?
Answer: 0.337

Question: And the relative viability ([2]; first compound 0.1265 µM)?
Answer: 0.516

Question: And the relative viability ([2]; first compound 0.4 µM)?
Answer: 0.485

Question: What about the relative viability ([2]; first compound 1.265 µM) of the same compound?
Answer: 0.406

Question: And the relative viability ([3]; first compound 0.04 µM)?
Answer: 0.484

Question: What about the relative viability ([3]; first compound 0.1265 µM) of the same compound?
Answer: 0.602

Question: And the relative viability ([3]; first compound 0.4 µM)?
Answer: 0.481

Question: And the relative viability ([3]; first compound 1.265 µM)?
Answer: 0.323

Question: And the relative viability ([4]; first compound 0.04 µM)?
Answer: 0.648

Question: And the relative viability ([4]; first compound 0.1265 µM)?
Answer: 0.698

Question: What about the relative viability ([4]; first compound 0.4 µM) of the same compound?
Answer: 0.591

Question: And the relative viability ([4]; first compound 1.265 µM)?
Answer: 0.38

Question: And the relative viability ([5]; first compound 0.04 µM)?
Answer: 0.143

Question: And the relative viability ([5]; first compound 0.1265 µM)?
Answer: 0.209

Question: And the relative viability ([5]; first compound 0.4 µM)?
Answer: 0.209

Question: And the relative viability ([5]; first compound 1.265 µM)?
Answer: 0.152

Question: And the relative viability ([6]; first compound 0.04 µM)?
Answer: 0.588

Question: And the relative viability ([6]; first compound 0.1265 µM)?
Answer: 0.629

Question: What about the relative viability ([6]; first compound 0.4 µM) of the same compound?
Answer: 0.551

Question: What about the relative viability ([6]; first compound 1.265 µM) of the same compound?
Answer: 0.604

Question: And the relative viability ([7]; first compound 0.04 µM)?
Answer: 0.641

Question: What about the relative viability ([7]; first compound 0.1265 µM) of the same compound?
Answer: 0.634

Question: And the relative viability ([7]; first compound 0.4 µM)?
Answer: 0.642

Question: What about the relative viability ([7]; first compound 1.265 µM) of the same compound?
Answer: 0.488

Question: And the relative viability ([8]; first compound 0.04 µM)?
Answer: 0.214

Question: What about the relative viability ([8]; first compound 0.1265 µM) of the same compound?
Answer: 0.258

Question: And the relative viability ([8]; first compound 0.4 µM)?
Answer: 0.181

Question: What about the relative viability ([8]; first compound 1.265 µM) of the same compound?
Answer: 0.206

Question: What about the relative viability ([9]; first compound 0.04 µM) of the same compound?
Answer: 0.737

Question: What about the relative viability ([9]; first compound 0.1265 µM) of the same compound?
Answer: 0.521

Question: And the relative viability ([9]; first compound 0.4 µM)?
Answer: 0.575

Question: And the relative viability ([9]; first compound 1.265 µM)?
Answer: 0.473

Question: What about the relative viability ([10]; first compound 0.04 µM) of the same compound?
Answer: 0.446

Question: What about the relative viability ([10]; first compound 0.1265 µM) of the same compound?
Answer: 0.356

Question: What about the relative viability ([10]; first compound 0.4 µM) of the same compound?
Answer: 0.408

Question: What about the relative viability ([10]; first compound 1.265 µM) of the same compound?
Answer: 0.376

Question: What about the relative viability ([11]; first compound 0.04 µM) of the same compound?
Answer: 0.318

Question: And the relative viability ([11]; first compound 0.1265 µM)?
Answer: 0.376

Question: What about the relative viability ([11]; first compound 0.4 µM) of the same compound?
Answer: 0.383

Question: And the relative viability ([11]; first compound 1.265 µM)?
Answer: 0.391

Question: And the relative viability ([12]; first compound 0.04 µM)?
Answer: 0.297

Question: And the relative viability ([12]; first compound 0.1265 µM)?
Answer: 0.331

Question: What about the relative viability ([12]; first compound 0.4 µM) of the same compound?
Answer: 0.277

Question: And the relative viability ([12]; first compound 1.265 µM)?
Answer: 0.271

Question: What about the relative viability ([13]; first compound 0.04 µM) of the same compound?
Answer: 0.259

Question: And the relative viability ([13]; first compound 0.1265 µM)?
Answer: 0.268

Question: And the relative viability ([13]; first compound 0.4 µM)?
Answer: 0.307

Question: What about the relative viability ([13]; first compound 1.265 µM) of the same compound?
Answer: 0.247

Question: What about the relative viability ([14]; first compound 0.04 µM) of the same compound?
Answer: 0.505

Question: And the relative viability ([14]; first compound 0.1265 µM)?
Answer: 0.496

Question: And the relative viability ([14]; first compound 0.4 µM)?
Answer: 0.501

Question: What about the relative viability ([14]; first compound 1.265 µM) of the same compound?
Answer: 0.433

Question: And the relative viability ([15]; first compound 0.04 µM)?
Answer: 0.602

Question: What about the relative viability ([15]; first compound 0.1265 µM) of the same compound?
Answer: 0.632

Question: And the relative viability ([15]; first compound 0.4 µM)?
Answer: 0.518

Question: And the relative viability ([15]; first compound 1.265 µM)?
Answer: 0.604

Question: And the relative viability ([16]; first compound 0.04 µM)?
Answer: 0.927

Question: What about the relative viability ([16]; first compound 0.1265 µM) of the same compound?
Answer: 0.858

Question: What about the relative viability ([16]; first compound 0.4 µM) of the same compound?
Answer: 0.766

Question: And the relative viability ([16]; first compound 1.265 µM)?
Answer: 0.812

Question: And the relative viability ([17]; first compound 0.04 µM)?
Answer: 0.277

Question: What about the relative viability ([17]; first compound 0.1265 µM) of the same compound?
Answer: 0.267

Question: What about the relative viability ([17]; first compound 0.4 µM) of the same compound?
Answer: 0.239

Question: And the relative viability ([17]; first compound 1.265 µM)?
Answer: 0.237

Question: What about the relative viability ([18]; first compound 0.04 µM) of the same compound?
Answer: 0.592

Question: And the relative viability ([18]; first compound 0.1265 µM)?
Answer: 0.568

Question: And the relative viability ([18]; first compound 0.4 µM)?
Answer: 0.601

Question: And the relative viability ([18]; first compound 1.265 µM)?
Answer: 0.572

Question: What about the relative viability ([19]; first compound 0.04 µM) of the same compound?
Answer: 0.598

Question: And the relative viability ([19]; first compound 0.1265 µM)?
Answer: 0.669

Question: What about the relative viability ([19]; first compound 0.4 µM) of the same compound?
Answer: 0.78

Question: And the relative viability ([19]; first compound 1.265 µM)?
Answer: 0.666

Question: And the relative viability ([20]; first compound 0.04 µM)?
Answer: 0.575

Question: What about the relative viability ([20]; first compound 0.1265 µM) of the same compound?
Answer: 0.738

Question: What about the relative viability ([20]; first compound 0.4 µM) of the same compound?
Answer: 0.603

Question: What about the relative viability ([20]; first compound 1.265 µM) of the same compound?
Answer: 0.515

Question: And the relative viability ([21]; first compound 0.04 µM)?
Answer: 0.394

Question: And the relative viability ([21]; first compound 0.1265 µM)?
Answer: 0.541

Question: What about the relative viability ([21]; first compound 0.4 µM) of the same compound?
Answer: 0.423

Question: And the relative viability ([21]; first compound 1.265 µM)?
Answer: 0.436

Question: And the relative viability ([22]; first compound 0.04 µM)?
Answer: 0.285

Question: And the relative viability ([22]; first compound 0.1265 µM)?
Answer: 0.31

Question: What about the relative viability ([22]; first compound 0.4 µM) of the same compound?
Answer: 0.323

Question: And the relative viability ([22]; first compound 1.265 µM)?
Answer: 0.294

Question: And the relative viability ([23]; first compound 0.04 µM)?
Answer: 0.858

Question: What about the relative viability ([23]; first compound 0.1265 µM) of the same compound?
Answer: 0.928

Question: What about the relative viability ([23]; first compound 0.4 µM) of the same compound?
Answer: 0.832

Question: What about the relative viability ([23]; first compound 1.265 µM) of the same compound?
Answer: 0.501

Reference: the supplement of paper PMC10307832
